Here are results for eight molecules from US11179396B2, “Heterocyclic compounds as antibacterials” (Janssen Sciences Ireland Unlimited Company, priority 2016, dated 2021).

Converted amounts (≈) assume the structure as drawn.

The first test has as its system M. tuberculosis.
Experiment: not given
As to conditions: cited from earlier work.
In the case of `CCc1nc2ccc(Cl)cn2c1C(=O)NCc1ccc(N2CCC(c3ccc(OC(F)(F)F)cc3)CC2)cc1` [Compound Q203], the “activity against both replicating and non-replicating bacteria” value is “highly active”.

The test system of the next test is Mycobacterium tuberculosis strain EH 4.0 (361.269). The experiment in a line: Test 4: resazurin growth inhibition assay, M. tuberculosis strain EH 4.0. It counts as cell-based. The conditions noted are these: read-out: pIC50 (converted). The source says: Test 4 (See Also Test 1 Above; in this Test a Different Strain of Mycobacterium tuberculosis Strain is Employed)
Appropriate solutions of experimental and reference compounds were made in 96 well plates with 7H9 medium. Samples of Mycobacterium tuberculosis strain EH 4.0 (361.269) were taken from cultures in stationary growth phase. These were first diluted to obtain an optical density of 0.3 at 600 nm wavelength and then diluted 1/100, resulting in an inoculum of approximately 5×10 exp5 colony forming units per well. Plates were incubated at 37° C. in plastic bags to prevent evaporation. After 7 days, resazurin was added to all wells. Two days later, fluorescence was measured on a Gemini EM Microplate Reader with 543 nm excitation and 590 nm emission wavelengths and MIC50 and/or pIC50 values (or the like, e.g. IC50, IC90, pIC90, etc) were (or may be) calculated. pIC50 values may be recorded below in μg/mL.
(The colour change of resazurin is a common sign of viable cells or microbes.)
Consider `CCc1nc2ccc(Cl)cn2c1C(=O)NCc1ccc(N2CC3CC(F)CC3C2)cc1` (stereo not drawn) [Cpd 1], for which the IC50 is 39.8 nM.

Consider `CCc1nc2sc(C)cn2c1C(=O)NCc1ccc(N2CC3CC(F)CC3C2)cc1` (stereo not drawn) [Cpd 2], for which the IC50 was 50.1 nM.

In the case of `CCc1nc2n(c1C(=O)NCc1ccc(N3CC4CC(F)CC4C3)cc1)CCCC2` (stereo not drawn) [Cpd 3], the IC50 is 100 nM. With `CCc1nc2ncc(Cl)cn2c1C(=O)NCc1ccc(N2CC3CC(F)CC3C2)cc1` (stereo not drawn) [Cpd 4], the IC50 is 112 nM. As to `CCc1nc2sc(C)cn2c1C(=O)NCc1ccc(N2CC3C(C2)C3C(F)(F)F)cc1` (stereo not drawn) [Cpd 7], the IC50 is 31.6 nM. Take `Cc1nn2ccccc2c1C(=O)NCc1ccc(N2C[C@H]3C[C@H](F)C[C@H]3C2)cc1` [Cpd 8]: the IC50 was 1120 nM. For `CCc1nc2ncc(Cl)cn2c1C(=O)NCc1ccc(N2C[C@@H]3CC(F)(F)C[C@@H]3C2)cc1` [Cpd 9], the IC50 was 15.8 nM.

The subject of another test is M. tuberculosis H37Rv.
Experiment: not given
The conditions noted are these: strain M. tuberculosis H37Rv, inside macrophages; cited from earlier work.
For the molecule `CCc1nc2ccc(Cl)cn2c1C(=O)NCc1ccc(N2CCC(c3ccc(OC(F)(F)F)cc3)CC2)cc1` [Compound Q203], the MIC50 is 0.28 nM (≈ 0.156 ng/mL).
